# Values of other authors in patent US20040198838A1, “Pharmaceutical compositions containig terbinafin and use thereof” (priority 2001, published 2004).
# Key:
# [1] = biological target: CYP2D6 (Homo sapiens, UniProt P10635)
# CYP2D6, sequence (P10635 whole entry): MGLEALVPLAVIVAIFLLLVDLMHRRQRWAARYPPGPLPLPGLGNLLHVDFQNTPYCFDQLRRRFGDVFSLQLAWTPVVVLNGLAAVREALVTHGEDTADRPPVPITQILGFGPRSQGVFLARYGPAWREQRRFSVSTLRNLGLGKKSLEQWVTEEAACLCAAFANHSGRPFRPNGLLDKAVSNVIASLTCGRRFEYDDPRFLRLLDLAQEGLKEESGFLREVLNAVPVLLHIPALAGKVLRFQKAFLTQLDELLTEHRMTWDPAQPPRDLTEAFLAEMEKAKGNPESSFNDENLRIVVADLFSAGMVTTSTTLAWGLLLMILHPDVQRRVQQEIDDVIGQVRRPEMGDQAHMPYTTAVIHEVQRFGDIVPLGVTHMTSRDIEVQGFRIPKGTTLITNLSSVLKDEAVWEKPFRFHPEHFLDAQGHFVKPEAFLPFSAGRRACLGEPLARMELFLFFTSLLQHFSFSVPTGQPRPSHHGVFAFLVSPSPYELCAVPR
smiles,measurement,setting,value
"CN(C/C=C/C#CC(C)(C)C)Cc1cccc2ccccc12 [terbinafine, Terbinafine]",effective half-life,in vivo,about 36 hours
same,reduction of clearance,patients with renal impairment (creatinine clearance up to 50 ml/min) or hepatic cirrhosis,approximately 50%
same,area under the curve over 24 hours (AUC),single 250 mg terbinafine dose,about 4.56 μg.hour/ml
same,peak drug plasma concentration (Cmax),single 250 mg terbinafine dose,about 1 μg/ml
same,time to peak drug plasma concentration,single 250 mg terbinafine dose,≤ 2 h
same,factor of AUC increase in steady state versus single dose,steady state,2.5
same,increase of peak blood concentration (Cmax) in steady state versus single dose,steady state,25%
same,change in AUC when administered with a meal,with a meal,moderate increase
same,inhibition of CYP2D6,[1],potent inhibitor
